Results from PubChem BioAssay AID328 (DTP/NCI, 2004).
“And” between values parts separate entries of the source, which are not always exact repeats. Equal entries are not always repeated. Toxic doses and inconclusive results are not listed. The calls were made as follows: active = survival T/C of 150% or more; inactive = T/C below 125% in these data. Starred links: 1 amine or outer side, 2 acyl side, 3 side chain; linkers in the order of their positions; H or OH if unused. Positions of bridges follow the written chain, without caps; N, C: chain ends. Non-standard residues stand in square brackets, D forms with d. Residues, ends and D or L forms follow the SMILES beside them. ξ: configuration not given here. *: point of attachment. ξOrn(4,5-diOH) = O=C(C(CC(O)C(O)N[*:3])N[*:1])[*:2]; ξhTyr(βξ-OH,γξ-OH) = NC(C(=O)O)C(O)C(O)c1ccc(O)cc1; ξPro(3ξ-OH,4ξ-Me) = CC1CNC(C(=O)O)C1O; X4 = CCCCC/C=C/C/C=C\CCCCCCCC(=O)*; Hyp = O=C(O)[CH]1C[CH](O)CN1

Tested on: BDF1 mice, P388 leukemia ip, median survival T/C
Test: NCI In Vivo Anticancer Drug Screen. Data for tumor model P388 Leukemia (intraperitoneal) in B6D2F1 (BDF1) mice
Conditions: endpoint: median survival time, higher = longer survival
Summary of the method: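 Vehicle-dosed animals serve as the reference; survival of compound-dosed, tumour-implanted mice is divided by it.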

[1] = dose: 50.0 mg/kg/injection, schedule: Q01DX009 (ip), vehicle: saline
[2] = dose: 100.0 mg/kg/injection, schedule: Q04DX003 (ip), vehicle: saline
[3] = dose: 100.0 mg/kg/injection, schedule: Q01DX009 (ip), vehicle: saline with Tween-80
[4] = dose: 200.0 mg/kg/injection, schedule: Q01DX009 (ip), vehicle: saline with Tween-80
[5] = dose: 100.0 mg/kg/injection, schedule: Q01DX009 (ip), vehicle: saline
[6] = dose: 50.0 mg/kg/injection, schedule: Q01DX009 (ip), vehicle: saline with Tween-80
[7] = dose: 200.0 mg/kg/injection, schedule: Q01DX009 (ip), vehicle: saline
[8] = dose: 200.0 mg/kg/injection, schedule: Q04DX003 (ip), vehicle: saline
[9] = dose: 400.0 mg/kg/injection, schedule: Q01DX009 (ip), vehicle: saline
[10] = dose: 400.0 mg/kg/injection, schedule: Q04DX003 (ip), vehicle: saline
[11] = dose: 12.5 mg/kg/injection, schedule: Q04DX003 (ip), vehicle: water
[12] = dose: 25.0 mg/kg/injection, schedule: Q01DX009 (ip), vehicle: water
[13] = dose: 25.0 mg/kg/injection, schedule: Q04DX003 (ip), vehicle: water
[14] = dose: 50.0 mg/kg/injection, schedule: Q01DX009 (ip), vehicle: water
[15] = dose: 50.0 mg/kg/injection, schedule: Q04DX003 (ip), vehicle: water
[16] = dose: 100.0 mg/kg/injection, schedule: Q01DX009 (ip), vehicle: water
[17] = dose: 100.0 mg/kg/injection, schedule: Q04DX003 (ip), vehicle: water
[18] = dose: 200.0 mg/kg/injection, schedule: Q04DX003 (ip), vehicle: water
[19] = dose: 100.0 mg/kg/injection, schedule: Q01DX009 (ip), vehicle: Klucel (hydroxypropylcellulose) (HPC)
[20] = dose: 200.0 mg/kg/injection, schedule: Q01DX009 (ip), vehicle: Klucel (hydroxypropylcellulose) (HPC)

Measured: T/C

O=C1CCCN1.O=C1CCCN1.[Br][Co][Br]
inactive: dose: 25.0 mg/kg/injection, schedule: Q01DX009 (ip), vehicle: saline 108 % of control | dose: 44.0 mg/kg/injection, schedule: Q01DX009 (ip), vehicle: saline 109 % of control | [1] 113 % of control | dose: 50.0 mg/kg/injection, schedule: Q04DX003 (ip), vehicle: saline 105 % of control | [2] 111 % of control

CCOC(=O)CCCN(c1sc(C)c(-c2ccccc2)c1C(=O)OCC)S(=O)(=O)c1ccc(C)cc1
inactive: [3] 109 % of control | [4] 90 % of control

O=C1N(c2ccccc2)CCC12CCNCC2
inactive: [1] 94 % of control | [5] 94 % of control

CCN(C(=O)c1ccc(C(=O)N(CC)c2ccccc2)cc1)c1ccccc1
inactive: dose: 100.0 mg/kg/injection, schedule: Q04DX003 (ip), vehicle: saline with Tween-80 100 % of control | dose: 200.0 mg/kg/injection, schedule: Q04DX003 (ip), vehicle: saline with Tween-80 91 % of control

CCCOC(=O)C(F)C(Br)C(=O)OCCC (configuration not stated)
inactive: [6] 89 % of control | [3] 99 % of control | [4] 118 % of control

C=CCOCCO
inactive: [5] 112 % of control | [2] 91 % of control | [7] 112 % of control | [8] 95 % of control | [9] 100 % of control | [10] 108 % of control

Cc1ccc(S(=O)(=O)OCCOC(=O)OCCOS(=O)(=O)c2ccc(C)cc2)cc1
inactive: [6] 99 % of control | [3] 100 % of control | [4] 99 % of control

CN1CCC(OC(N)=O)CC1
inactive: [5] 109 % of control | dose: 100.0 mg/kg/injection, schedule: Q04DX003 (ip), vehicle: alcohol 100 % of control | dose: 100.0 mg/kg/injection, schedule: Q04DX003 (ip), vehicle: saline sonified 100 % of control | dose: 132.0 mg/kg/injection, schedule: Q01DX008 (ip), vehicle: saline 95 % of control | dose: 132.0 mg/kg/injection, schedule: Q01DX009 (ip), vehicle: saline 113 % of control | dose: 200.0 mg/kg/injection, schedule: Q01DX008 (ip), vehicle: saline 104 % of control | [7] 109 % of control | dose: 200.0 mg/kg/injection, schedule: Q04DX003 (ip), vehicle: alcohol 100 % of control | dose: 200.0 mg/kg/injection, schedule: Q04DX003 (ip), vehicle: saline sonified 104 % of control | dose: 300.0 mg/kg/injection, schedule: Q01DX008 (ip), vehicle: saline 104 % of control | dose: 300.0 mg/kg/injection, schedule: Q01DX009 (ip), vehicle: saline 113 % of control | [9] 95 % of control | dose: 400.0 mg/kg/injection, schedule: Q04DX003 (ip), vehicle: alcohol 118 % of control | dose: 400.0 mg/kg/injection, schedule: Q04DX003 (ip), vehicle: saline sonified 100 % of control

CCOC(=O)CSc1c([N+](=O)[O-])c(C)nn1C
inactive: dose: 3.12 mg/kg/injection, schedule: Q04DX003 (ip), vehicle: water 110 % of control | dose: 6.25 mg/kg/injection, schedule: Q04DX003 (ip), vehicle: water 100 % of control and 106 % of control | [11] 92 % of control and 104 % of control | [12] 93 % of control | [13] 88 % of control and 100 % of control | [14] 90 % of control | [15] 97 % of control and 100 % of control and 113 % of control | [16] 93 % of control | [17] 101 % of control and 104 % of control | dose: 200.0 mg/kg/injection, schedule: Q01DX009 (ip), vehicle: water 101 % of control | [18] 109 % of control | dose: 400.0 mg/kg/injection, schedule: Q01DX009 (ip), vehicle: water 101 % of control | dose: 400.0 mg/kg/injection, schedule: Q04DX003 (ip), vehicle: water 103 % of control

CN(C)P(=O)(N(C)C)N(C)C (tested in a mixture with another compound)
inactive: dose: 50.0 mg/kg/injection, schedule: Q01DX009 (ip), vehicle: Klucel (hydroxypropylcellulose) (HPC) 98 % of control | [19] 105 % of control | [20] 105 % of control

C1CN2CCC1CC2
inactive: dose: 12.5 mg/kg/injection, schedule: Q01DX009 (ip), vehicle: saline with Tween-80 107 % of control | dose: 22.0 mg/kg/injection, schedule: Q01DX009 (ip), vehicle: saline with Tween-80 101 % of control | dose: 25.0 mg/kg/injection, schedule: Q01DX009 (ip), vehicle: saline with Tween-80 119 % of control | dose: 33.0 mg/kg/injection, schedule: Q01DX009 (ip), vehicle: saline with Tween-80 122 % of control

BrC1(Br)CC1(c1ccccc1)c1ccccc1
inactive: [19] 110 % of control | [20] 110 % of control | dose: 400.0 mg/kg/injection, schedule: Q01DX009 (ip), vehicle: Klucel (hydroxypropylcellulose) (HPC) 105 % of control

Cc1ccc(S(=O)(=O)N(C)SCl)cc1 (tested in a mixture with another compound)
inactive: dose: 100.0 mg/kg/injection, schedule: Q01DX009 (ip), vehicle: other 121 % of control

Nc1cc(OCc2ccccc2)cc(OCc2ccccc2)c1
inactive: dose: 6.25 mg/kg/injection, schedule: Q01DX009 (ip), vehicle: water 96 % of control | dose: 12.5 mg/kg/injection, schedule: Q01DX009 (ip), vehicle: water 96 % of control and 101 % of control | [11] 105 % of control | [12] 99 % of control and 105 % of control | [13] 99 % of control | [14] 97 % of control and 98 % of control | [15] 99 % of control | [16] 92 % of control and 100 % of control | [17] 106 % of control and 107 % of control and 108 % of control | [18] 95 % of control and 96 % of control

CCC(=O)NC
inactive: [5] 122 % of control | [2] 100 % of control | [7] 100 % of control | [8] 104 % of control | [9] 109 % of control | [10] 100 % of control

O=C1CCN2C=CC=CC2=N1
inactive: [2] 104 % of control | [8] 100 % of control | [10] 95 % of control

O=C(S)c1ccccc1Br
inactive: dose: 50.0 mg/kg/injection, schedule: Q01DX005 (ip), vehicle: saline with Tween-80 99 % of control | dose: 100.0 mg/kg/injection, schedule: Q01DX005 (ip), vehicle: saline with Tween-80 92 % of control | dose: 200.0 mg/kg/injection, schedule: Q01DX005 (ip), vehicle: saline with Tween-80 100 % of control

CCCCC/C=C/C/C=C\CCCCCCCC(=O)NC1CC(O)C(O)NC(=O)C2C(O)C(C)CN2C(=O)C(C(C)O)NC(=O)C(C(O)C(O)c2ccc(O)cc2)NC(=O)C2CC(O)CN2C(=O)C(C(C)O)NC1=O (stereo not drawn) (X4-[ξOrn(4,5-diOH)]T[Hyp][ξhTyr(βξ-OH,γξ-OH)]T[ξPro(3ξ-OH,4ξ-Me)]; lactam 1-C; configuration not given here)
inactive: dose: 0.5 mg/kg/injection, schedule: Q01DX009 (ip), vehicle: lactate 100 % of control | dose: 1.0 mg/kg/injection, schedule: Q01DX009 (ip), vehicle: lactate 102 % of control | dose: 2.0 mg/kg/injection, schedule: Q01DX009 (ip), vehicle: lactate 102 % of control | dose: 4.0 mg/kg/injection, schedule: Q01DX009 (ip), vehicle: lactate 100 % of control
